Data reported in patent US11572508B2, “Non-linear surfactant” (Powdermet, Inc., priority 2018, dated 2023).

Columns and labels:
[1] = pH-controlled solubility and rock-face adsorption of isoelectric surfactant; type: physicochemical
Source text: An example of an isoelectric non-linear molecular surfactant is a modified rigid ring structure with a zwitterionic to control solubility and surface activity. Molecular surfactant is defined as a group of atoms bonded together, representing the smallest fundamental unit of a chemical compound. In one non-limiting descriptive example, cholic acid is bound to a zwitterionic bi-functional compound, such as threonine. One (1) equivalent of cholic acid is suspended in an aprotic polar solvent, tetrahydrofuran with the addition of a base catalysis, pyridine. The primed rigid ring moiety structure is titrated with one (1) to three (3) equivalents of a zwitterionic coupling agent, and/or silane threonine, in an aprotic polar solvent. Purified product has applications in surface modification chemistry across materials and production markets. One non-limiting identified application is the oil and gas industry's unconventional resource collections through improving production recovery by controlling the rock wettability and reducing the translation motion energy through rock porosity and fractures. The zwitterionic nature of the isoelectric non-linear molecular surfactant enables the production recovery increase by allowing the production team to control when the surfactant becomes insoluble and favors surface adsorption to the formation's porous and fracture surface. […]

[2] = emulsion suspension of liquid epoxy resin: particle size dispersion, suspension stability, pumping through sand packs; type: physicochemical; details: 71 mM surfactant
Source text: The suspension was maintained for up to 1 month unchanged.

Row | pH at which surfactant is triggered to adsorb to the rock face ([1]; formation rock face) | pH at which surfactant is soluble in pumping solutions ([1]; pumping solutions) | SMILES | time suspension was maintained unchanged ([2]; 23 wt. % solids epoxy resin suspension) | particle size dispersion D50 of nanoemulsion ([2]; 23 wt. % solids suspension of bisphenol A/epichlorohydrin-derived liquid epoxy resin)
1 | 5.6 | below 5.5 | CC(O)C(NC(=O)CCC(C)C1CCC2C3C(O)CC4CC(O)CCC4(C)C3CC(O)C12C)C(=O)O (stereo not shown) | – | –
2 | – | – | C[C@H](CCC(=O)O)[C@H]1CC[C@H]2[C@@H]3[C@H](O)C[C@@H]4C[C@H](O)CC[C@]4(C)[C@H]3C[C@H](O)[C@]12C [3α,7α,12α-trihydroxy-5β-cholan-24-oic acid] | up to 1 month | 450 nm
